Values after ≈ are worked out from the molar mass of the structure shown.
Tests used:
[1] = system: HCT-116 human colorectal carcinoma cell line; assay: sulforhodamine B anti-proliferative assay, HCT-116; assay type: cell-based; details: HCT-116, 48 hours incubation, SRB; for IC50: Homo sapiens, read-out: Anti-proliferative activity, IC50 (concentration required to inhibit cell growth by 50%)
Experimental: (§1) Human colorectal carcinoma HCT-116 and HT-29 cells are routinely maintained in McCoy's 5A medium (Gibco) whereas human melanoma A375 cells and human pancreatic adenocarcinoma PANC-1 cells are cultured in DMEM (Gibco) supplemented with 10% fetal bovine serum (Gibco), 1% penicillin-streptomycin (Gibco) in a 5% CO2, 95% air humidified atmosphere at 37° C.
(§2) For the sulforhodamine B assay, different carcinoma cells were seeded in 96-well plates at a density of 5×10^3 cells/well and incubated with serial dilutions of ent-kaurene diterpenoids FA, FA1, FA2, FA3, FA4 or PA for 48 hours. After incubation, cells were treated with 50% trichloroacetic acid at 4° C. for at least 30 minutes for protein fixing. Cells were then washed with water 4 times prior to a complete dry down of the culture plate. To each well, 100 μL of 0.4% sulforhodamine B in 1% acetic acid was added. After 30-minute incubation at room temperature, cells were washed with 1% acetic acid 4 times. Fixed proteins were fully solubilized with 10 mM Tris base solution (pH 10, 200 μL/well). Spectrophotometric absorbance of samples were measured at 515 nm using a microplate reader (Bio-rad).

[2] = system: A375 human melanoma cell line; assay: sulforhodamine B anti-proliferative assay, A375; assay type: cell-based; details: A375, 48 hours incubation, SRB; for IC50: Homo sapiens, A-375, read-out: Anti-proliferative activity, IC50 (concentration required to inhibit cell growth by 50%)
Experimental: as §1, §2

[3] = system: HT-29 human colorectal carcinoma cell line; assay: sulforhodamine B anti-proliferative assay, HT-29; assay type: cell-based; details: HT-29, 48 hours incubation, SRB; for IC50: Homo sapiens, read-out: Anti-proliferative activity, IC50 (concentration required to inhibit cell growth by 50%)
Experimental: as §1, §2

[4] = system: PANC-1 human pancreatic ductal adenocarcinoma cell line; assay: sulforhodamine B anti-proliferative assay, PANC-1; assay type: cell-based; details: PANC-1, 48 hours incubation, SRB; for IC50: Homo sapiens, read-out: Anti-proliferative activity, IC50 (concentration required to inhibit cell growth by 50%)
Experimental: as §1, §2

[5] = system: HCT-116 cells; assay: flow cytometric annexin V-FITC/propidium iodide apoptosis assay; assay type: cell-based, human; details: HCT-116, 0.25, 0.5 and 1.0 μg/mL for 48 hours, concentration-dependent (FIG. 2)
Experimental: From the flow cytometric analysis, the staining percentage of annexin V/FITC and propidium iodide (PI) is detected as percentage at Q1: necrosis (upper left quarter); Q2: late apoptosis (upper right quarter); Q3: live (lower left quarter); Q4: early apoptosis (lower right quarter).
For the flow cytometric assay, HCT-116 cells were seeded in 6-well plates at a density of 1×10^5 cells/well and incubated with serial dilutions of FA3 for 48 hours. Cells were collected by centrifugation, re-suspended in 500 μL of binding buffer containing 5 μL of propidium iodide and 5 μL of annexin V-FITC, and incubated for 15 minutes in dark. Signals of the cell suspension were then analyzed using a flow cytometer (BD) for apoptotic events.

[6] = system: HCT-116 colon carcinoma cell-bearing nude mice; assay: HCT-116 xenograft experiment in nude mice; assay type: in vivo, male BALB/c nude mice; details: for growth of xenograft tumor in terms of volume: 20 mg/kg i.p. every other day for 21 days, compared to paclitaxel 10 mg/kg (FIG. 4, FIG. 6)
Experimental: For the xenograft experiment, HCT-116 cells were implanted subcutaneously in the right and left flanks (1×10^6 cells in 100 μL) of male BALB/c nude mice (n=10/group), which were SPF class and aged 6-7 weeks old weighing between 20 g-25 g. Tumor size was monitored by measuring two perpendicular diameters with a caliper every other day. When tumors were formed to approximately 100 mm^3 seven days after the injection of HCT-116 cells, FA3 or PA was administered (20 mg/kg, every other day by intraperitoneal injection for a total of 21 days). To the paclitaxel group, injection of paclitaxel was given at 10 mg/kg to the nude mice whilst the vehicle group merely received the 2.5% EtOH and Cremphor EL solution, which was the dissolving solution for FA3, PA and paclitaxel. Tumor volume and body weight of mice were recorded at indicated time points during the course of experiment. Tumor volume was calculated as volume=length×width^2×0.5. Weight of tumor xenograft was assessed at the time of sacrificed.
The data are presented as mean±standard error of the mean (S.E.M.). Statistical differences among the experimental groups were tested by one-way analysis of variance (ANOVA). P-value<0.05 was considered as statistically significant.

Row | Compound | IC50 [1] [µg/mL] | IC50 [2] [µg/mL] | IC50 [3] [µg/mL] | IC50 [4] [µg/mL] | Anti-proliferative activity, IC50 (concentration required to inhibit cell growth by 50%) [1] [µg/mL] | Anti-proliferative activity, IC50 (concentration required to inhibit cell growth by 50%) [2] [µg/mL] | Anti-proliferative activity, IC50 (concentration required to inhibit cell growth by 50%) [3] [µg/mL] | Anti-proliferative activity, IC50 (concentration required to inhibit cell growth by 50%) [4] [µg/mL] | degree of apoptosis [5] | growth of xenograft tumor in terms of volume [6] | growth of xenograft tumor in terms of weight ([6]; 20 mg/kg i.p. every other day, day 21, compared to paclitaxel 10 mg/kg (FIG. 3)) | change of body weight ([6]; 21-day administration, tumor-bearing nude mice (FIG. 5))
1 | C=C1C(=O)[C@]23[C@H](O)C[C@@H]4C(C)(C)CCC[C@]45CO[C@](O)(C[C@@H]1[C@H]2O)[C@@H]53 [PA, pseudoirroratin A, reference compound] | – | – | – | – | 0.2702 | 0.8737 | 0.4194 | 0.4396 | – | not as efficient as paclitaxel | – | –
2 | C=C1C(=O)[C@@]23C(O)C[C@@H]4C(C)(C)CCCC4(COC(C)=O)[C@@H]2[C@@H](O)C[C@@H]1[C@H]3O (stereo partly shown) [FA, flexicaulin A, reference compound] | – | – | – | – | 0.7215 | 1.624 | 0.9732 | 1.024 | – | – | – | –
3 | C=C1C(=O)[C@@]23[C@@H]4OC(C)(C)O[C@@H]2C[C@@H]2C(C)(C)CCC[C@]25CO[C@](O)(C[C@@H]14)[C@@H]53 [FA4] | 0.98 (≈ 2.52 µM) | > 2 | > 2 | > 2 | – | – | – | – | – | – | – | –

Now from value to compound, other results behind:

Row | IC50 [1] [µg/mL] | IC50 [2] [µg/mL] | IC50 [3] [µg/mL] | IC50 [4] [µg/mL] | Anti-proliferative activity, IC50 (concentration required to inhibit cell growth by 50%) [1] [µg/mL] | Anti-proliferative activity, IC50 (concentration required to inhibit cell growth by 50%) [2] [µg/mL] | Anti-proliferative activity, IC50 (concentration required to inhibit cell growth by 50%) [3] [µg/mL] | Anti-proliferative activity, IC50 (concentration required to inhibit cell growth by 50%) [4] [µg/mL] | Compound | degree of apoptosis [5] | growth of xenograft tumor in terms of volume [6] | growth of xenograft tumor in terms of weight ([6]; 20 mg/kg i.p. every other day, day 21, compared to paclitaxel 10 mg/kg (FIG. 3)) | change of body weight ([6]; 21-day administration, tumor-bearing nude mice (FIG. 5))
4 | 0.274 (≈ 0.701 µM) | 0.668 (≈ 1.71 µM) | 0.424 (≈ 1.09 µM) | 0.413 (≈ 1.06 µM) | – | – | – | – | C=C1C(=O)[C@@]23[C@H](O)C[C@@H]4C(C)(C)CCC[C@@]4(COC(C)=O)[C@@H]2C(=O)C[C@@H]1[C@H]3O [FA3] | Substantial increase in the degree of apoptosis | more sufficiently restrained | more sufficiently restrained | does not lead to a significant loss of body weight
5 | > 2 | > 2 | > 2 | > 2 | – | – | – | – | C=C1C(=O)[C@@]23[C@@H]4OC(C)(C)O[C@@H]2C[C@@H]2C(C)(C)CCC[C@@]2(COC(C)=O)[C@@H]3C(=O)C[C@@H]14 [FA2] | – | – | – | –
